Results taken from article PMC6738096 (British Journal of Cancer, 2019).

Assay: Phase 1 trial: plasma pharmacokinetics of TSR-011 IR (LC-MS/MS, noncompartmental analysis)
Type: in vivo, human
Procedure: To evaluate PK and establish the RP2D, blood samples were collected from all patients in the phase 1 dose-escalation trial at daily doses of 30–480 mg.
Plasma samples were processed through a Biotage (Uppsala, Sweden) ISOLUTE SLE + 200 μL of a 96-well-supported liquid extraction plate. […] The validated range was 0.87–433.25 nmol/L. The assay interbatch precision, expressed as percent coefficients of variation, ranged from 6.6 to 11.7%, and the interbatch accuracy, expressed as percent bias, ranged from –4.7 to 0.5%.
PK parameters were calculated using noncompartmental analysis (Phoenix WinNonlin version 7.0, Pharsight Corporation, Mountain View, CA, USA).

[1] = single dose, over the 16-fold increase in dose (30–480 mg)
[2] = steady state, over the sixfold increase in dose (80–480 mg)

Question: With `CC(C)NC(=O)[C@H]1CC[C@@H](n2c(NC(=O)c3ccc(F)cc3)nc3ccc(CN4CCC(C(C)(C)O)CC4)cc32)CC1` [TSR-011] as the compound, how does the Highest concentration observed (40-mg IR TID cohort) read?
Answer: Its Highest concentration observed is 2599.50 nmol/L.

Question: What about the “Mean Ctrough” value (40-mg TID (Q8h), steady state day 29) of the same compound?
Answer: Its value is 351.38 nmol/L.

Question: And the Cmax at 696 h (human, plasma, po, 40-mg TID (Q8h), steady state day 29)?
Answer: Its Cmax at 696 h is 528 nM.

Question: And the half-life (human, plasma, po, cycle 1/day 1, across cohorts)?
Answer: The half-life was 420 to 1620 min.

Question: What about the Vd/F (human, plasma, po, cycle 1/day 1, across cohorts, read-out: Apparent volume of distribution) of the same compound?
Answer: Its Vd/F is 188 to 1620 L.

Question: And the Cmax (human, plasma, cycle 2/day 1, daily oral 80–480 mg)?
Answer: Its Cmax is 447 to 3330 nM.

Question: And the Tmax (human, plasma, cycle 2/day 1, daily oral 80–480 mg, read-out: Median tmax)?
Answer: The Tmax was 2 to 6 h.

Question: What about the “Increase in geometric mean AUC from 0 to 24 h” value [1] of the same compound?
Answer: The value was 42 fold.

Question: What about the “Increase in geometric mean Cmax” value [1] of the same compound?
Answer: The value was 41 fold.

Question: And the “Increase in exposure for AUC from time 0 to the last measurable concentration” value [2]?
Answer: Its value is 2.9 fold.

Question: And the “Increase in exposure for Cmax” value [2]?
Answer: The value was 3.3 fold.
